The target in the assay is soluble guanylate cyclase (sGC) (Homo sapiens (Human), UniProt Q02108+Q02153). Description: sGC-HEK-cGMP assay with SNP incubation, LC/MS detection (Example 2A). In kind it is cell-based. To be noted: HEK293 cells, 10 μM SNP, LC/MS detection; for Emax: 100% = BAY 41-2272 at 10 μM, read-out: HEK assay Emax - unconstrained (%); for EC50: top of curve not fitted to 100%, read-out: HEK assay EC50 - unconstrained. The method, boiled down:
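HEK293 cells with endogenous sGC were pretreated 15 min at 37 °C with 0.5 mM IBMX, then exposed 10 min at 37 °C to compound (added from 0.0001–30 μM solutions) plus SNP (from 10 μM solution). After 0.1 M HCl lysis, cGMP was quantified by LC/MS against a standard curve.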

Molecules are shown by their SMILES. Some results are limits rather than exact numbers.

soluble guanylate cyclase (sGC), sequence (Q02153 whole entry): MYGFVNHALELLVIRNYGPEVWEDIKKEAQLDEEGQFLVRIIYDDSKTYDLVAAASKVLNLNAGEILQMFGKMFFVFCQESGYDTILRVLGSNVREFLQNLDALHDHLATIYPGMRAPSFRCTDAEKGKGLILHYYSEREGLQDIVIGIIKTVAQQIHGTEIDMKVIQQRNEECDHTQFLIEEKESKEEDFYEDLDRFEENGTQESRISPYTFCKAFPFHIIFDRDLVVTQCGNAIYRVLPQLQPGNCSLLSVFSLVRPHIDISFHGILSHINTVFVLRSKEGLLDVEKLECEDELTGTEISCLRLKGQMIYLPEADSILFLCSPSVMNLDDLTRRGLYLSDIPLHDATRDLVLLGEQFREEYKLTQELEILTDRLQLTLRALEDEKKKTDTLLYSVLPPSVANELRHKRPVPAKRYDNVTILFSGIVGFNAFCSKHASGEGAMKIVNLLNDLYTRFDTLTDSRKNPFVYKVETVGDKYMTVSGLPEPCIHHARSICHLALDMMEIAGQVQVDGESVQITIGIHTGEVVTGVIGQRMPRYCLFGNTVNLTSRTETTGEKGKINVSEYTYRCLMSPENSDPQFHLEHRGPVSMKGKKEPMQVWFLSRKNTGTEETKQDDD
soluble guanylate cyclase (sGC), sequence (Q02108 whole entry): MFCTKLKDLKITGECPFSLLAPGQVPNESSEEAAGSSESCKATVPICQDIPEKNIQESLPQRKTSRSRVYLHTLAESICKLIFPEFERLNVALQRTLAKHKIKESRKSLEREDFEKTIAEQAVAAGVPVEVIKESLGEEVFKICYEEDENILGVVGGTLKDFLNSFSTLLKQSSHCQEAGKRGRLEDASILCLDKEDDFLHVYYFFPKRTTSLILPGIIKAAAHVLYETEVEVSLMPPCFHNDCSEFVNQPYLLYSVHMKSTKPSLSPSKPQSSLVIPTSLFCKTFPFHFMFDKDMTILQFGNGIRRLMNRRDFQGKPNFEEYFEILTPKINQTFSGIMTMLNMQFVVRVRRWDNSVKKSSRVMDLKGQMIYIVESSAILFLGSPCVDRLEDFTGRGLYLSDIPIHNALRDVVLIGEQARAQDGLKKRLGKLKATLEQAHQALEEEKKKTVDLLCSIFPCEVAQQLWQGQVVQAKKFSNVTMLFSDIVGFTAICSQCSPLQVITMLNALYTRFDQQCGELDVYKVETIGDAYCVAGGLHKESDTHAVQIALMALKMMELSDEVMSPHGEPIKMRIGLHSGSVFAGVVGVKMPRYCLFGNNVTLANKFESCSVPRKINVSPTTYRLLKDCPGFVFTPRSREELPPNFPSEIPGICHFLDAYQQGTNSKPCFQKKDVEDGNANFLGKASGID

On to `CC(C)[C@H](CC(=O)O)Nc1nc(-c2cc(-c3ccon3)n(Cc3ccccc3F)n2)ncc1F` [Compound I-182], for which the Emax – broadly, the greatest response seen or fitted, relative to the assay's reference – lay within 80 to 100% and the EC50 (in general, the concentration at which the effect is half-maximal) was in the range of 1 to 100 nM.

Regarding `CC(C)(C)OC(=O)N1CCCN1c1nc(-c2cc(-c3ccon3)n(Cc3ccccc3F)n2)ncc1F` [Compound I-183], the Emax lay in the range of 60 to 80% and the EC50 is 100 to 500 nM.

Turning to `CC(C)(C)OC(=O)N1CCN(c2nc(-c3cc(-c4ccon4)n(Cc4ccccc4F)n3)ncc2F)C(CO)C1` (stereo not drawn) [Compound I-184], the Emax was in the range of 80 to 100% and the EC50 was in the range of 500 to 1000 nM.

For the compound `CCC1(C(=O)O)CCN(c2nc(-c3cc(-c4ccon4)n(Cc4ccccc4F)n3)ncc2F)CC1` [Compound I-189], the Emax is 60 to 80% and the EC50 was in the range of 100 to 500 nM.

Take `CC1CN(c2nc(-c3cc(-c4ccon4)n(Cc4ccccc4F)n3)ncc2F)CCC1C(=O)O` (stereo not drawn) [Compound I-190]: the Emax was 60 to 80% and the EC50 was in the range of 1000 to 5000 nM.

On to `Fc1ccccc1Cn1nc(-c2ncc(F)c(N3CCCN3)n2)cc1-c1ccon1` [Compound I-193], for which the Emax was in the range of 60 to 80% and the concentration giving a half-maximal response (EC50) lay in the range of 1000 to 5000 nM.

With `O=C(O)C1(CNc2nc(-c3cc(-c4ccon4)n(Cc4ccccc4F)n3)ncc2F)CCOCC1` [Compound I-194], the Emax fell in the range of 80 to 100% and the EC50 was in the range of 100 to 500 nM.

For `CC(C)C(CC(=O)O)N(C)c1nc(-c2cc(-c3ccon3)n(Cc3ccccc3F)n2)ncc1F` (stereo not drawn) [Compound I-195], the maximum response (Emax) fell in the range of 60 to 80% and the concentration giving a half-maximal response (EC50) is 1 to 100 nM.

In the case of `CNc1nc(-c2cc(-c3ccon3)n(Cc3ccccc3F)n2)ncc1F` [Compound I-196], the Emax was 80 to 100%.

`O=C(O)COC1CCN(c2nc(-c3cc(-c4ccon4)n(Cc4ccccc4F)n3)ncc2F)CC1` [Compound I-197]: the Emax lay within 80 to 100% and the EC50 was 1000 to 5000 nM.

With `CSCCC(Nc1nc(-c2cc(-c3ccon3)n(Cc3ccccc3F)n2)ncc1F)C(=O)O` (stereo not drawn) [Compound I-199], the maximal effect (Emax) fell in the range of 60 to 80% and the EC50 was 5000 to 10000 nM.

`CCOC(=O)CN(CC1CC1)c1nc(-c2cc(-c3ccon3)n(Cc3ccccc3F)n2)ncc1F` [Compound I-201]: the Emax lay in the range of 100 to 120% and the EC50 lay in the range of 100 to 500 nM.

With `CC(C)[C@@H](CC(=O)O)N(C)c1nc(-c2cc(-c3ccon3)n(Cc3ccccc3F)n2)ncc1F` [Compound I-202], the Emax lay in the range of 80 to 100% and the EC50 lay in the range of 100 to 500 nM.

On to `O=C(O)CN(CC1CC1)c1nc(-c2cc(-c3ccon3)n(Cc3ccccc3F)n2)ncc1F` [Compound I-203], for which the Emax lay in the range of 40 to 60% and the EC50 was 100 to 500 nM.

Consider `CCOC(=O)CN(CC(C)C)c1nc(-c2cc(-c3ccon3)n(Cc3ccccc3F)n2)ncc1F` [Compound I-205], for which the Emax is 60 to 80% and the EC50 was 500 to 1000 nM.

As for `C[C@@H](C(=O)O)N(C)c1nc(-c2cc(-c3ccon3)n(Cc3ccccc3F)n2)ncc1F` [Compound I-207], the Emax lay in the range of 100 to 120% and the EC50 lay in the range of 500 to 1000 nM.

For the compound `O=C(O)C12CCCC1CN(c1nc(-c3cc(-c4ccon4)n(Cc4ccccc4F)n3)ncc1F)C2` (stereo not drawn) [Compound I-208], the Emax was in the range of 80 to 100% and the EC50 fell in the range of 1 to 100 nM.

Regarding `CC(C)CN(CC(=O)O)c1nc(-c2cc(-c3ccon3)n(Cc3ccccc3F)n2)ncc1F` [Compound I-209], the Emax is 80 to 100% and the EC50 fell in the range of 500 to 1000 nM.

Regarding `O=C(O)C1(CNc2nc(-c3cc(-c4ccon4)n(Cc4ccccc4F)n3)ncc2F)CC1` [Compound I-210], the maximum response (Emax) was in the range of 100 to 120% and the EC50 was in the range of 1 to 100 nM.

On to `OCC1CNCCN1c1nc(-c2cc(-c3ccon3)n(Cc3ccccc3F)n2)ncc1F` (stereo not drawn) [Compound I-211], for which the maximal effect (Emax) was above 120% and the EC50 was in the range of 1000 to 5000 nM.

With `O=C(N1CCN(c2nc(-c3cc(-c4ccon4)n(Cc4ccccc4F)n3)ncc2F)C(CO)C1)C(F)(F)F` (stereo not drawn) [Compound I-212], the Emax is above 120% and the EC50 was 500 to 1000 nM.

On to `CN(CCCC(=O)O)c1nc(-c2cc(-c3ccon3)n(Cc3ccccc3F)n2)ncc1F` [Compound I-215], for which the Emax fell in the range of 40 to 60% and the EC50 was in the range of 1000 to 5000 nM.

In the case of `O=C(O)CN1CCCN1c1nc(-c2cc(-c3ccon3)n(Cc3ccccc3F)n2)ncc1F` [Compound I-216], the Emax was in the range of 40 to 60% and the EC50 lay within 100 to 500 nM.

On to `CCC(CC)(CNc1nc(-c2cc(-c3ccon3)n(Cc3ccccc3F)n2)ncc1F)C(=O)O` [Compound I-217], for which the maximum response (Emax) was 60 to 80% and the EC50 was in the range of 100 to 500 nM.

In the case of `CONC(=O)CN(C)c1nc(-c2cc(-c3ccon3)n(Cc3ccccc3F)n2)ncc1F` [Compound I-218], the Emax lay within 40 to 60% and the half-maximal effective concentration (EC50) was 1000 to 5000 nM.

As for `Cc1noc(CN(C)c2nc(-c3cc(-c4ccon4)n(Cc4ccccc4F)n3)ncc2F)n1` [Compound I-223], the Emax was in the range of 40 to 60% and the EC50 was in the range of 1000 to 5000 nM.

With `C[C@H](C[C@H](Nc1nc(-c2cc(-c3ccon3)n(Cc3ccccc3F)n2)ncc1F)C(=O)O)C(F)(F)F` [Compound I-224], the Emax lay in the range of 60 to 80% and the EC50 lay within 1000 to 5000 nM.

As to `C[C@H](C[C@@H](Nc1nc(-c2cc(-c3ccon3)n(Cc3ccccc3F)n2)ncc1F)C(=O)O)C(F)(F)F` [Compound I-225], the Emax lay within 80 to 100% and the EC50 lay within 1 to 100 nM.

As to `CC(C)(F)C(Nc1nc(-c2cc(-c3ccon3)n(Cc3ccccc3F)n2)ncc1F)C(=O)O` (stereo not drawn) [Compound I-226], the Emax was 60 to 80% and the 50% effective concentration (EC50) is 1 to 100 nM.

As for `O=C(O)[C@@H](Nc1nc(-c2cc(-c3ccon3)n(Cc3ccccc3F)n2)ncc1F)C1CC1` [Compound I-227], the Emax lay in the range of 20 to 40% and the EC50 lay in the range of 100 to 500 nM.

On to `CN(CC1(C(=O)O)CCCC1)c1nc(-c2cc(-c3ccon3)n(Cc3ccccc3F)n2)ncc1F` [Compound I-228], for which the Emax lay in the range of 0 to 10% and the 50% effective concentration (EC50) is above 10000 nM.

Consider `O=C(O)CC1CCCN(c2nc(-c3cc(-c4ccon4)n(Cc4ccccc4F)n3)ncc2F)C1` (stereo not drawn) [Compound I-229], for which the Emax lay within 20 to 40% and the EC50 was above 10000 nM.

As for `COC(=O)CC1CCN(c2nc(-c3cc(-c4ccon4)n(Cc4ccccc4F)n3)ncc2F)CC1` [Compound I-231], the Emax fell in the range of 40 to 60% and the EC50 was above 10000 nM.

As to `COCCC(Nc1nc(-c2cc(-c3ccon3)n(Cc3ccccc3F)n2)ncc1F)C(=O)O` (stereo not drawn) [Compound I-232], the Emax is 80 to 100% and the EC50 fell in the range of 1000 to 5000 nM.

With `O=C(O)C(Nc1nc(-c2cc(-c3ccon3)n(Cc3ccccc3F)n2)ncc1F)C1CCCCC1` (stereo not drawn) [Compound I-233], the Emax fell in the range of 60 to 80% and the EC50 fell in the range of 100 to 500 nM.

Turning to `O=C(O)CCC1CCN(c2nc(-c3cc(-c4ccon4)n(Cc4ccccc4F)n3)ncc2F)CC1` [Compound I-234], the Emax is 80 to 100% and the 50% effective concentration (EC50) was 100 to 500 nM.

Take `CC(C)[C@@H](C(=O)O)N(C)c1nc(-c2cc(-c3ccon3)n(Cc3cccc(F)c3F)n2)ncc1F` [Compound I-235]: the Emax was 100 to 120% and the EC50 was in the range of 1 to 100 nM.

For the compound `CC(C)[C@H](c1nnn[nH]1)N(C)c1nc(-c2cc(-c3ccon3)n(Cc3ccccc3F)n2)ncc1F` [Compound I-237], the Emax was in the range of 60 to 80% and the EC50 was 100 to 500 nM.

Consider `CN(CC1(C(=O)O)CCOCC1)c1nc(-c2cc(-c3ccon3)n(Cc3ccccc3F)n2)ncc1F` [Compound I-238], for which the Emax was in the range of 60 to 80% and the EC50 is 100 to 500 nM.

As to `O=C(O)[C@H](Nc1nc(-c2cc(-c3ccon3)n(Cc3ccccc3F)n2)ncc1F)C1CC1` [Compound I-240], the maximal response (Emax) lay in the range of 60 to 80% and the EC50 is 500 to 1000 nM.

With `CN(c1nc(-c2cc(-c3ccon3)n(Cc3ccccc3F)n2)ncc1F)[C@@H](C(=O)O)C1CC1` [Compound I-241], the Emax lay in the range of 80 to 100% and the EC50 was in the range of 100 to 500 nM.

Regarding `CN(c1nc(-c2cc(-c3ccon3)n(Cc3ccccc3F)n2)ncc1F)[C@@H]1CCCC[C@H]1C(=O)O` [Compound I-242], the Emax fell in the range of 100 to 120% and the EC50 fell in the range of 100 to 500 nM.

Take `O=C(O)[C@H](Nc1nc(-c2cc(-c3ccon3)n(Cc3ccccc3F)n2)ncc1F)C1CCCCC1` [Compound I-243, (R)-2-cyclohexyl-2-((5-fluoro-2-(1-(2-fluorobenzyl)-5-(isoxazol-3-yl)-1H-pyrazol-3-yl)pyrimidin-4-yl)amino)acetic acid]: the Emax fell in the range of 80 to 100% and the 50% effective concentration (EC50) was 1 to 100 nM.

With `CN(c1nc(-c2cc(-c3ccon3)n(Cc3ccccc3F)n2)ncc1F)C(CC(F)(F)F)C(=O)O` (stereo not drawn) [Compound I-244], the Emax lay within 80 to 100% and the EC50 was in the range of 500 to 1000 nM.

As for `CCOC(=O)CN(c1nc(-c2cc(-c3ccon3)n(Cc3ccccc3F)n2)ncc1F)C1(C)CCOCC1` [Compound I-246], the Emax fell in the range of 40 to 60% and the EC50 was 1000 to 5000 nM.

For the compound `CCC(C)[C@H](C(=O)O)N(C)c1nc(-c2cc(-c3ccon3)n(Cc3ccccc3F)n2)ncc1F` (stereo partly drawn) [Compound I-247], the Emax fell in the range of 80 to 100% and the EC50 was 1 to 100 nM.

For `CC(C)(C)[C@H](CC(=O)O)Nc1nc(-c2cc(-c3ccon3)n(Cc3ccccc3F)n2)ncc1F` [Compound I-251], the Emax was in the range of 60 to 80% and the EC50 fell in the range of 100 to 500 nM.

In the case of `CCC(CC)(CN(C)c1nc(-c2cc(-c3ccon3)n(Cc3ccccc3F)n2)ncc1F)C(=O)O` [Compound I-252], the maximum response (Emax) fell in the range of 60 to 80% and the EC50 lay in the range of 1 to 100 nM.

Regarding `O=C(O)c1ccccc1C1CCN(c2nc(-c3cc(-c4ccon4)n(Cc4ccccc4F)n3)ncc2F)CC1` [Compound I-254], the Emax lay in the range of 80 to 100% and the EC50 was in the range of 1 to 100 nM.

For the compound `O=C(O)C1(c2ccc(F)cc2)CCN(c2nc(-c3cc(-c4ccon4)n(Cc4ccccc4F)n3)ncc2F)CC1` [Compound I-255], the Emax fell in the range of 80 to 100% and the EC50 was 1 to 100 nM.

Values taken from US10183021B2, “sGC stimulators” (Ironwood Pharmaceuticals, Inc., priority 2013, dated 2019).
